# Measurements taken from paper PMC6389962 (Nature Communications, 2019).
# pEC50: −log10 of the molar value. Starred links: 1 amine or outer side, 2 acyl side, 3 side chain; linkers in the order of their positions; H or OH if unused. Positions of bridges follow the written chain, without caps; N, C: chain ends. Residues, ends and D or L forms follow the SMILES beside them. Chains are numbered I, II in the order given. X3 = C[C@@H](CNC(=O)[*:1])NC(=O)NC[C@H](CCC(=O)O)NC(=O)NC[C@H](Cc1ccc(O)cc1)N[*:2]
# What was measured:
# [1] = in vitro; conditions: isolated enzyme neprilysin, pH 8
# Description: Stock solutions of the oligomers were prepared at a concentration of 400 µM in a solution of 50 mM HEPES buffer, 50 mM NaCl, 0.05% Tween-80, pH 8.0. Stock solution of NEP 24.11 was prepared at a concentration of 100 µg mL^−1 in water. Stability of oligomers to NEP 24.11 was assessed by conducting protease reaction in a 96-well plates at 20 °C. […] Each compound was also incubated in the absence of the enzyme (12 µL of HEPES buffer and 38 µL of oligomer). […] A portion of the quenched reaction solution was analysed by HPLC. The time course of peptide degradation was determined by integrating the area of each peak in a series of HPLC traces.
# [2] = in vitro; conditions: mouse, plasma, pH 7.4, % remaining analogue
# Description: The oligomer was then diluted 1/50 with a solution of plasma/PBS pH 7.4 (1:1) to afford a final concentration of 5 µM and incubated at 37 °C (4 µL of the stock solution was diluted with 196 µL of plasma/PBS, pH 7.4, 1:1). Each compound was also incubated in the absence of plasma (196 µL of H2O/PBS, pH 7.4, 1:1). At the indicated time (20 min and 60 min) an aliquot of 70 µL was removed from each experimental reaction and pipetting into 175 µL of acetonitrile at 0 °C to quench the reaction (t = 0 min was determined using the reaction without plasma). The samples were frozen at –80 °C before analysis. The frozen samples were defrosted, stirred with a vortex 5 min and finally centrifuged 5 min at 16 °C (1500 × g). The supernatant was analysed by LC-MS. The time course of oligomer degradation was determined by integrating the area of the peak in the extracted ion chromatogram.
# Supplementar y Figur e 2 : Mouse plasma degradation assay. […] Data are
# mean ± SEM, n = 4. Source data are provided as a Source Data file (T able 2 tab).
# Supplementar y Figur e 3.
# Data are mean ± SEM, n = 3.
# Source data are provided as a Source Data file […]
# [3] = system: normal mice (C57BL/6J); experiment: Blood glucose study in normal fed mice; format: in vivo, mouse; parameters: key to In vivo activity (indicator): + active; +++: + + + more active
# Description: In the first study, we evaluated the effect of the analogues on the blood glucose concentration of normal mice (Fig. 3). The fed mice were treated with the analogues and their blood glucose concentration was monitored before and after dosing for 6 h. […] Indeed, a decrease of blood glucose concentration is observed after 30 min and the effect is preserved for 4 h after dosing.
# Fig. 3 Blood glucose study in mice. a–c Blood glucose concentration in normal mice (C57BL/6J, male, 20–25 g, n = 3) before and after dosing: 5 μg per mouse (50 nmol kg^−1) i.v. Formulation: 20 μg mL^−1 in PBS 1×. The dosing was done at T0. Data are mean ± SEM. […] Source data are provided as a Source Data file
# After the acclimation period (at least 5 days), mice (male C57BL/6J mice (Charles River laboratories) 8 weeks old, 20–25 g) were randomized into 10 groups (n = 3 per group) according to their body weight. They were acutely treated via i.v. route at 10 am (5 µg per mouse). Blood glucose was measured before dosing and at 30 min, 1, 2, 4, 6 h after dosing in fed conditions.
# [4] = biological target: T1, mouse GLP-1 receptor (Mus musculus, UniProt O35659)
# T1 sequence (O35659 22-463): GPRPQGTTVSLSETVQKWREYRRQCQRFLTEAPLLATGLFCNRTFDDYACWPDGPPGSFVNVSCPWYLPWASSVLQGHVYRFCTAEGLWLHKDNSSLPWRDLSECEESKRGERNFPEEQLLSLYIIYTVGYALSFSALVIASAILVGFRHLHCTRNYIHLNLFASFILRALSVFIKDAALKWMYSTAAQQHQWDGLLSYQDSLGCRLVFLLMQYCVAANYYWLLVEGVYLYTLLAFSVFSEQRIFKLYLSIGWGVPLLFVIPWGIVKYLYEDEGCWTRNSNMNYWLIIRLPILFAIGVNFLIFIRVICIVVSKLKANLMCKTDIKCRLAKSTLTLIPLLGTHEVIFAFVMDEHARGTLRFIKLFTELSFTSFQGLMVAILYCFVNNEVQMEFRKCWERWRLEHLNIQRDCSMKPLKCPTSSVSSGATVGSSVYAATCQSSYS
# [5] = biological target: T1, mouse GLP-1 receptor; experiment: cell-based
# [6] = system: db/db mice; experiment: Blood glucose study in db/db mice; format: in vivo, mouse; conditions: n = 5, 200 μg kg−1 (50 nmol kg−1) intraperitoneal, fed
# Source text: Data are mean ± SEM. […] Source data are provided as a Source Data file
Structure (SMILES),half-life [1],"remaining at 20 min, 5 µM [2]","remaining at 1 h, 5 µM [2]","In vivo activity (indicator) ([3]; mice, 50 nmol kg−1 i.v.)","effect on blood glucose concentration ([3]; normal fed C57BL/6J mice, n = 3, 5 μg per mouse (50 nmol kg−1) i.v., monitored 6 h)",LogEC50 (best-fit value) [4],"Potency (%), percentage of potency compare to GLP-1-G^2 ([4]; cAMP production, from EC50)",pEC50 [5],"Emax ([5]; read-out: Top (best-fit value), variable slope four-parameter fit, unconstrained, 14: experiment 1)",activity on blood glucose 48 h after a single dose [6]
"CC[C@H](C)[C@H](NC(=O)[C@H](Cc1ccccc1)NC(=O)[C@H](CCC(=O)O)NC(=O)[C@H](CCCCN)NC(=O)[C@H](C)NC(=O)[C@H](C)NC(=O)NC[C@H](C)NC(=O)NC[C@H](CCC(=O)O)NC(=O)NC[C@H](Cc1ccc(O)cc1)NC(=O)[C@H](Cc1ccc(O)cc1)NC(=O)[C@H](CO)NC(=O)[C@H](CO)NC(=O)[C@@H](NC(=O)[C@H](CC(=O)O)NC(=O)[C@H](CO)NC(=O)[C@@H](NC(=O)[C@H](Cc1ccccc1)NC(=O)[C@@H](NC(=O)CNC(=O)[C@H](CCC(=O)O)NC(=O)CNC(=O)[C@@H](N)Cc1c[nH]cn1)[C@@H](C)O)[C@@H](C)O)C(C)C)C(=O)N[C@@H](C)C(=O)N[C@@H](Cc1c[nH]c2ccccc12)C(=O)N[C@@H](CC(C)C)C(=O)N[C@H](C(=O)N[C@@H](CCCCN)C(=O)NCC(=O)N[C@@H](CCCNC(=N)N)C(=O)NCC(N)=O)C(C)C [compound 9, GG2[Y^uE^uA^u]^14-17] (I: AAKEFIAWLVKGRG-NH2 / II: H-HGEGTFTSDVSSY; linker I:N-II:C via X3)",3 h,33.1%,11.7%,+,showed efficacy but no improvement,-9.749,135%,9.74,88.2%,
CCCCCCCCCCCCCCCC(=O)N[C@@H](CCC(=O)NCCCC[C@H](NC(=O)[C@H](C)NC(=O)[C@H](C)NC(=O)[C@H](CCC(N)=O)NC(=O)CNC(=O)[C@H](CCC(=O)O)NC(=O)[C@H](CC(C)C)NC(=O)[C@H](Cc1ccc(O)cc1)NC(=O)[C@H](CO)NC(=O)[C@H](CO)NC(=O)[C@@H](NC(=O)[C@H](CC(=O)O)NC(=O)[C@H](CO)NC(=O)[C@@H](NC(=O)[C@H](Cc1ccccc1)NC(=O)[C@@H](NC(=O)CNC(=O)[C@H](CCC(=O)O)NC(=O)[C@H](C)NC(=O)[C@@H](N)Cc1c[nH]cn1)[C@@H](C)O)[C@@H](C)O)C(C)C)C(=O)N[C@@H](CCC(=O)O)C(=O)N[C@@H](Cc1ccccc1)C(=O)N[C@H](C(=O)N[C@@H](C)C(=O)N[C@@H](Cc1c[nH]c2ccccc12)C(=O)N[C@@H](CC(C)C)C(=O)N[C@H](C(=O)N[C@@H](CCCNC(=N)N)C(=O)NCC(=O)N[C@@H](CCCNC(=N)N)C(=O)NCC(=O)O)C(C)C)[C@@H](C)CC)C(=O)O [liraglutide],,,,,,,,,,no more significant activity
